The source of these data is ChEMBL document CHEMBL4725475, “Discovery of Potent and Selective 7-Azaindole Isoindolinone-Based PI3Kγ Inhibitors” (ACS Med Chem Lett, 2020).

A short description of data set [1]: Efflux ratio of permeability in human Caco2 cells. The settings on record: Caco-2. It counts as ADME, cell-based.
Data set [2] in a line: Intrinsic clearance in rat hepatocytes assessed as per million cells. Type of data set: ADME, cell-based, Hepatocyte.
Data set [3] deals with T1, Phosphatidylinositol 4,5-bisphosphate 3-kinase catalytic subunit gamma isoform (Homo sapiens, UniProt P48736). The experiment in a line: Inhibition of PI3K p120gamma (unknown origin) using phosphatidylinositol 4,5-bisphosphate as substrate in presence of ATP incubated for 60 mins by ADP-Glo assay.
Data set [4] can be described thus: Intrinsic clearance in cryopreserved human hepatocytes assessed as per million cells at 0.5 uM by LC-MS/MS analysis. Type of data set: ADME, cell-based, Hepatocyte.
The species named for data set [5] is Homo sapiens. The experiment in a line: Selectivity index, ratio of inhibition for PI3Kalpha (unknown origin) to inhibition for PI3K p120 gamma (unknown origin) using phosphatidylinositol 4,5-bisphosphate as substrate in presence of ATP incubated for 60 mins by ADP-Glo assay.
Data set [6] can be described thus: Clearance in Sprague-Dawley rat at 0.25 mg/kg, iv measured upto 8 hrs by LC/MS/MS analysis. It counts as ADME, organism-based. The conditions noted are these: in vivo.
The target in data set [7] is T1, Phosphatidylinositol 4,5-bisphosphate 3-kinase catalytic subunit gamma isoform. The experiment in a line: Inhibition of PI3Kgamma in human THP-1 cells assessed as reduction in Akt phosphorylation at S473 residue incubated for 60 mins measured after 120 mins by alphalisa assay. Type of data set: cell-based.
A short description of data set [8]: Apparent permeability in human Caco2 cells. It counts as ADME, cell-based. The conditions noted are these: Caco-2.
For data set [9], the species on record is Homo sapiens. The experiment in a line: Selectivity index, ratio of inhibition for PI3Kdelta (unknown origin) to inhibition for PI3K p120 gamma (unknown origin) using phosphatidylinositol 4,5-bisphosphate as substrate in presence of ATP incubated for 60 mins by ADP-Glo assay.
For data set [10], the target named is Cytochrome P450 3A4 (Homo sapiens, UniProt P08684). The experiment in a line: Inhibition of CYP3A4 (unknown origin) using midazolam as substrate measured after 5 to 20 mins in presence of NADPH by LC-MS/MS analysis. Type of data set: ADME.
Data set [11] addresses T2, Cytochrome P450 1A2 (Homo sapiens, UniProt P05177).
T2 sequence (P05177 whole entry): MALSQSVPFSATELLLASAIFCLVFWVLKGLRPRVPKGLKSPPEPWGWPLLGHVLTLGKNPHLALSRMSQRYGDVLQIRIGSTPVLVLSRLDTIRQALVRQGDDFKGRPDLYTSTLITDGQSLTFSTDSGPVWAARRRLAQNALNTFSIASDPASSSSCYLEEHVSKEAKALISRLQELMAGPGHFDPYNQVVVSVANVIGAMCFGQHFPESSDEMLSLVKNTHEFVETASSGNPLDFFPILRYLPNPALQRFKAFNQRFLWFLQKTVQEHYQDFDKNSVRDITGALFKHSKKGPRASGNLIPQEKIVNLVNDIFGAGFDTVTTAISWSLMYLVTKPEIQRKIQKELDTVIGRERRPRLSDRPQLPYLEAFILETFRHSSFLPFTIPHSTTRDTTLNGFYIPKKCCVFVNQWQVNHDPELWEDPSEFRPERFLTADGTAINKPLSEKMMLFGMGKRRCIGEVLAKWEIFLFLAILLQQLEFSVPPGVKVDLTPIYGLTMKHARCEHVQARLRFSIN
The experiment in a line: Inhibition of CYP1A2 (unknown origin) using phenacetin as substrate measured after 5 to 20 mins in presence of NADPH by LC-MS/MS analysis. It counts as ADME.

Data set [12] has as its target Cytochrome P450 2C19 (Homo sapiens, UniProt P33261). The experiment in a line: Inhibition of CYP2C19 (unknown origin) using S-mephenytoin as substrate measured after 5 to 20 mins in presence of NADPH by LC-MS/MS analysis. It counts as ADME.
Data set [13] concerns the target Cytochrome P450 2C9 (Homo sapiens, UniProt P11712). The experiment in a line: Inhibition of CYP2C9 (unknown origin) using diclofenac as substrate measured after 5 to 20 mins in presence of NADPH by LC-MS/MS analysis. Type of data set: ADME.
Data set [14] addresses Cytochrome P450 2D6 (Homo sapiens, UniProt P10635). The experiment in a line: Inhibition of CYP2D6 (unknown origin) using diclofenac as substrate measured after 5 to 20 mins in presence of NADPH by LC-MS/MS analysis. It counts as ADME.

Bounds are passed on as bounds.

T1 sequence (P48736 whole entry, canonical isoform): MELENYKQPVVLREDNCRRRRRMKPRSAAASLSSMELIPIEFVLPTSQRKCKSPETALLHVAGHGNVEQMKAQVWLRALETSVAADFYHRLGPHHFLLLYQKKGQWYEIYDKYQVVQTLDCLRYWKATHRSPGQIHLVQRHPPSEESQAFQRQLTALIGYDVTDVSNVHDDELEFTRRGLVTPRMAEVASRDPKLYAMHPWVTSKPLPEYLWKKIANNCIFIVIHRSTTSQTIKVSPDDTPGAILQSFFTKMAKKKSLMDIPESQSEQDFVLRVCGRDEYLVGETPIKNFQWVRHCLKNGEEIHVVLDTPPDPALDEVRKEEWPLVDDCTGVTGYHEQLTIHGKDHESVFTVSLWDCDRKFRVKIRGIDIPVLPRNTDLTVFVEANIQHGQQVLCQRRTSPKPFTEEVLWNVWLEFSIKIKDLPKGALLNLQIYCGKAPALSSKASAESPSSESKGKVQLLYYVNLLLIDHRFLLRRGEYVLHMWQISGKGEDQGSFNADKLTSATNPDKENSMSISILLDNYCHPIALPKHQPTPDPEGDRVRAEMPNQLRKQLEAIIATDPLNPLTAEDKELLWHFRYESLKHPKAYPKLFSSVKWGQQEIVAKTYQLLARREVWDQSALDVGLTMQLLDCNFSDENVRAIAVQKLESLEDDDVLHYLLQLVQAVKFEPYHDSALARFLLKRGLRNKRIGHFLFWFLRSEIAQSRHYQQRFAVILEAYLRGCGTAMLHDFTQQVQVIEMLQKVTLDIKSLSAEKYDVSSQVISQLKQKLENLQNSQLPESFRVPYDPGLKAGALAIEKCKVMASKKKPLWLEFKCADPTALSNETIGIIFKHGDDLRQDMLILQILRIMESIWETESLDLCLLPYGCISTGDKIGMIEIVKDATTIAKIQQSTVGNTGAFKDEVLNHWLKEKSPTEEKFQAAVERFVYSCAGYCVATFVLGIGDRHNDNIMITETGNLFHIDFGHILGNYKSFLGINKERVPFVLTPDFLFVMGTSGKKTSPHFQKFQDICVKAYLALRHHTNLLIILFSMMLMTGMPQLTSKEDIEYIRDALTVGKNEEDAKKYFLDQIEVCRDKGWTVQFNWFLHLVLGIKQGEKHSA
Chain of Cytochrome P450 2D6 (P10635 whole entry): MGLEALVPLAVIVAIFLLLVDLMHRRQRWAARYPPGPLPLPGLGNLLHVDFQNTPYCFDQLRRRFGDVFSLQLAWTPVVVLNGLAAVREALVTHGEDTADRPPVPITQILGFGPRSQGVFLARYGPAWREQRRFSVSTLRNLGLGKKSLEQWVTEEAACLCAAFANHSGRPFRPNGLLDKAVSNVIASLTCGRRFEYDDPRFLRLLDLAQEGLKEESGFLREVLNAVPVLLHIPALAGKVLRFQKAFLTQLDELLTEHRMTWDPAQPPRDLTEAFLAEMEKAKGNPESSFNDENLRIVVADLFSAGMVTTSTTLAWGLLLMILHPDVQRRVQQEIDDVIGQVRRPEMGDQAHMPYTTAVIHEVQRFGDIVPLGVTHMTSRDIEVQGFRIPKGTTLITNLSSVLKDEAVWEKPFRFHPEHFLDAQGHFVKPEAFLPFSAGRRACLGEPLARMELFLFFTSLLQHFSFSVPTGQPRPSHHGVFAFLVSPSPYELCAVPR
Chain of Cytochrome P450 3A4 (P08684 whole entry): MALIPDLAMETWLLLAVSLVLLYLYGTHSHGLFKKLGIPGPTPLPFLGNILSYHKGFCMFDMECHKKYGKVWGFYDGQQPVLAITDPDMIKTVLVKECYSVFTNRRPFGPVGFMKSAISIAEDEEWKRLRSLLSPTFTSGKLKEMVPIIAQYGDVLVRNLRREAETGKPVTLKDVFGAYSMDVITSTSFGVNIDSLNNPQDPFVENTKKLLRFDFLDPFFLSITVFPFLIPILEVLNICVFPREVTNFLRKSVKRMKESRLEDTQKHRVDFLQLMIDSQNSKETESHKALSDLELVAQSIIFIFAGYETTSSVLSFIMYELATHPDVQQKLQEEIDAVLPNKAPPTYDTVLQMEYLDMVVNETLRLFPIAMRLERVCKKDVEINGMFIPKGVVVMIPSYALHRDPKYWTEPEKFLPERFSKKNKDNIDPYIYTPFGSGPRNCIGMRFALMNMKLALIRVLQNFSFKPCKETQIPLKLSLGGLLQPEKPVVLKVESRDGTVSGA
Chain of Cytochrome P450 2C9 (P11712 whole entry): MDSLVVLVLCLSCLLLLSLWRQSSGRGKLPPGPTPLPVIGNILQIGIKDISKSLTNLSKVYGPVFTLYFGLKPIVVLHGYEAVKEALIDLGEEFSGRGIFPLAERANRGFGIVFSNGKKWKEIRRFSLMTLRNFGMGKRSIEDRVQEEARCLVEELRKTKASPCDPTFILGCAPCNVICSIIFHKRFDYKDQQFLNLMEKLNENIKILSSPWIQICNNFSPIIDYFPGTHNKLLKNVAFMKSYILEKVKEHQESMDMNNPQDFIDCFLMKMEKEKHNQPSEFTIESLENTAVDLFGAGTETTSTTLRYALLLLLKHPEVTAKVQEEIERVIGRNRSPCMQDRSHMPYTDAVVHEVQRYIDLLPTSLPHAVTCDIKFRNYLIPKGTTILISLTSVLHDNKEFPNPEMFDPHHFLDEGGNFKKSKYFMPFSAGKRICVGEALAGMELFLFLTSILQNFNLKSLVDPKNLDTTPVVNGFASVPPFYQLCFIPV
Chain of Cytochrome P450 2C19 (P33261 whole entry): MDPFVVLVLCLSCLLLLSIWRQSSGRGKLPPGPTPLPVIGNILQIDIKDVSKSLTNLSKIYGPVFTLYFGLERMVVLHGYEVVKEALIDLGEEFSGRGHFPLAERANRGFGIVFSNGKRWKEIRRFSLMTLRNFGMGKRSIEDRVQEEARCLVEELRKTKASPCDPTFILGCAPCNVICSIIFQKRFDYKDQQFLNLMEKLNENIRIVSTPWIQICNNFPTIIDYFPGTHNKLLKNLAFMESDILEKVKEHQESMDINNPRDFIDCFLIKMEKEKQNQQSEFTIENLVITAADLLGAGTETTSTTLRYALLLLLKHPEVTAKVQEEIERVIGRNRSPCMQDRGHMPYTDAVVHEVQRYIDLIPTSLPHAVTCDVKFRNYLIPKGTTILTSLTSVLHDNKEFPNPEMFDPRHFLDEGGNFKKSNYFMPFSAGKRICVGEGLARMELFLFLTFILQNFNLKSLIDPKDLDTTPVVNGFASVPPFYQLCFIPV

On to `Cc1cc(-c2cnc3[nH]cc(-c4ccc(C(=O)O)cc4)c3c2)cc2c1C(=O)N([C@@H](C)C1CC1)C2`, for which the efflux ratio in [1] came to 46.6. Moreover, the figures for the CLH in data set [2] and in [4] were 54 µL/min/1e6 cells and 24 µL/min/1e6 cells, respectively. The IC50 worked out at 2.5 nM in data set [3] and 140 nM in [7]. In addition, the values for the Selectivity ratio in [5] and in data set [9] were 259 and 136, respectively. Besides, the clearance in data set [6] was 183 mL/min/kg. Also, the apparent permeability coefficient (Papp) in data set [8] was found to be 1.07 ×10⁻⁶ cm/s.
As to `Cc1cc(-c2cnc3[nH]cc(-c4ccncc4)c3c2)cc2c1C(=O)N([C@@H](C)C1CC1)C2`, the half-inhibitory concentration (IC50) in [3] was 3.4 nM; in [10], 300 nM; in [11], 700 nM; in data set [12], less than 100 nM; in data set [13], 300 nM; in data set [7], 220 nM. In addition, in data set [14], the half-maximal inhibitory concentration (IC50) was 2000 nM. The Selectivity ratio in data set [5] stood at 379; in data set [9], 290.
